Source: PMC5665643, “CHIP as a membrane-shuttling proteostasis sensor” (eLife, 2017)
“Also recorded” adds a separate entry of the source.

How the values were obtained:
[1] = system: EGFP-CHIP-K30A in murine embryonic fibroblasts; test: Release of EGFP-CHIP-K30A from cellular membranes (PLD inhibitors); assay type: cell-based; conditions: 12 hr inhibitor treatment in serum-free DMEM, without fixation; *p<0.05 (chi-square); N = 4
CHIP [2] = test: Lipid-binding assay (membrane-immobilized lipids, lipid arrays); set-up: species or system Human; conditions: for CHIP binding to phospholipid on lipid array: lipid strips/PIP strips, 0.5 µg/ml wild-type chaperone-free CHIP, 1 hr at RT, anti-C-CHIP antibody
Protocol: (§1) Human recombinant full length CHIP and its truncated versions were purified from Escherichia coli BL21 cells using Glutathion Sepharose 4B (GE Healthcare). Sepharose-bound GST-CHIP was subjected to overnight treatment with PreScission protease and the released tag-free protein was collected. Size exclusion chromatography on a HiLoad Superdex 200 column (GE Healthcare) followed to ensure the purity and homogeneity of proteins. All CHIP variants were kept in HSP70 buffer (25 mM HEPES KOH pH 7.5, 150 mM KCl, 5 mM MgCl2, 5% glycerol, 1 mM DTT).
Membrane-immobilized lipids (Membrane lipid strips P-6002 and PIP strips P-6001) were purchased from Echelon Research Laboratories. The strips were incubated with blocking buffer (3% fatty acid free BSA, 0.1% (v/v) Tween-20 in PBS pH 7.5) for 1 hr at RT. 0.5 µg/ml of purified wild-type or mutant CHIP was added in blocking buffer and incubated for 1 hr at RT. Strips were washed and bound proteins were detected using anti-C-CHIP antibody. For competition experiments, ten times molar excess of C-terminal HSP70 was added to CHIP in blocking buffer.

[3] = system: EGFP-CHIP in murine embryonic fibroblasts; test: EGFP-CHIP relocalization to membranes in murine embryonic fibroblasts (fluorescence microscopy); assay type: cell-based; conditions: N = 3; for EGFP-CHIP relocalization to the plasma membrane: 20 μM inhibitor for 4 hr, 37°C, serum-free medium, without fixation, EGFP as control, ***p<0.001, chi-square
CHIP [4] = test: Liposome pelleting assay, effect of lipids and HSP70-C on CHIP association; assay type: binding, Human
Protocol: as §1
Human C-terminal HSP70 6xHis-tagged N-terminally was purified from Escherichia coli BL21 cells using 1 ml HisTrap column (GE Healthcare). Bound protein was eluted by applying an imidazole gradient. Fractions containing the protein were subjected to size exclusion chromatography using HiLoad Superdex 200 in HSP70 buffer. His-NQO1, His-UbcH5a, His-Uev1a and His-Ubc13 were purified similarly except that PBS/1 mM DTT was used during size exclusion chromatography. Purity of recombinant protein was evaluated by SDS-PAGE and Coomassie BB G-250 (CBB) staining. Concentration of proteins was determined measuring absorbance at 280 nm and using ProtParam (ExPASy) to calculate respective extinction coefficients. Proteins were aliquoted, snap-frozen and stored at −80°C.
Liposomes were prepared by mixing 1,2-dioleoyl-sn-glycero-3-phosphocholine (DOPC) with indicated amount (wt/wt) of either 1,2-dipalmitoyl-sn-glycero-3-phosphate (phosphatidic acid) or (wt/wt) 1,2-dipalmitoyl-sn-glycero-3-phosphoinositol-4-phosphate (PI4P) in a 1.5 ml reaction tube (Eppendorf). Lipid mixtures were dried under a nitrogen stream and kept for 1 hr under vacuum. Liposomes were rehydrated in 1 ml filtered reconstitution buffer (25 mM HEPES KOH pH 7.5, 50 mM NaCl) to a concentration of 10 mM lipids. Liposomes were reconstituted by shaking at 2000 rpm for 1 hr at 50°C, followed by sonication for 1 hr at 50°C in a water bath. The liposome suspension was subjected to five freeze-thaw cycles in liquid nitrogen to promote unilamellar vesicle formation, aliquoted in 200 µl and pulse-sonicated for 8 s at 45% output with MS72 sonotrode (Bandelin) to create a population of homogenously sized liposomes as determined using NanoSight (Malvern Instruments). Sonicated liposomes were pooled, aliquoted again, snap-frozen and stored at −80°C.
2 mM liposomes were mixed with 2 µM recombinant protein in 50 µl reconstitution buffer. The suspension was incubated shaking at 450 rpm for 30 min at 37°C. Liposomes with bound protein were sedimented by ultracentrifugation at 100,000 g for 30 min at 25°C. Liposome pellet was washed with 50 µl of reconstitution buffer and sedimented again at 100,000 g for 30 min at 25°C. The pellet was resuspended in 10 µl reconstitution buffer, resolved by SDS-PAGE and analyzed by CBB staining. Images were acquired with ChemiDoc MP imaging system and quantified using Image Lab 5.0 software (both from Bio-Rad Laboratories). For competition assays, indicated amounts of C-terminal HSP70 were preincubated with 2 µM CHIP for 20 min at 37°C prior to co-sedimentation.

[5] = biological target: C-terminal Hsp70-interacting protein (CHIP), human recombinant full length, wild type, tag-free (human) (UniProt Q9UNE7)
[6] = Liposome pelleting assay, binding of CHIP and truncated variants to liposomes; conditions: N = 3
From the text: For mammalian expression of EGFP, the expression vector pEGFP-N1 from Clontech (Mountain View, CA) was used. N-terminal EGFP-CHIP fusion protein was constructed by cloning human CHIP coding sequence in pEGFP-C2 vector (Clontech) using HindIII and BamHI restriction sites. A fusion between the N-terminalβ−1,4-galactosyltransferase1 and EGFP was used as a marker of the Golgi apparatus, farnesylated EGFP as a marker of plasma membrane (both constructs from Clontech). Untagged and 3xFLAG-tagged human CHIP for mammalian expression were constructed in pCMV-10 vector (Sigma-Aldrich). HSP70 was amplified from human cDNA and cloned into pcDNA3. 1 expression vector without a tag. HSP70 lacking the last amino acid (HSP70ΔD) was prepared by site-directed mutagenesis. Vectors of full-length CHIP, UbcH5a and mutant NQO1 for bacterial expression were prepared as described ([Martínez-Limón et al., 2016]). The TPR domain bacterial expression vector (TPR) was created by exchanging glutamate152 codon to a stop codon in the full-length CHIP vector. CHIP without TPR domain (ΔTPR) was cloned by deleting the sequence between serine25 and argininge130 by means of PCR. […]
Liposomes were prepared by mixing 1,2-dioleoyl-sn-glycero-3-phosphocholine (DOPC) with indicated amount (wt/wt) of either 1,2-dipalmitoyl-sn-glycero-3-phosphate (phosphatidic acid) or (wt/wt) 1,2-dipalmitoyl-sn-glycero-3-phosphoinositol-4-phosphate (PI4P) in a 1.5 ml reaction tube (Eppendorf). […] The liposome suspension was subjected to five freeze-thaw cycles in liquid nitrogen to promote unilamellar vesicle formation, aliquoted in 200 µl and pulse-sonicated for 8 s at 45% output with MS72 sonotrode (Bandelin) to create a population of homogenously sized liposomes as determined using NanoSight (Malvern Instruments). […]
2 mM liposomes were mixed with 2 µM recombinant protein in 50 µl reconstitution buffer. […] The pellet was resuspended in 10 µl reconstitution buffer, resolved by SDS-PAGE and analyzed by CBB staining. Images were acquired with ChemiDoc MP imaging system and quantified using Image Lab 5.0 software (both from Bio-Rad Laboratories). […]

[7] = biological target: T1, C-terminal Hsp70-interacting protein (CHIP), human recombinant full length, wild type, tag-free (human, UniProt Q9UNE7 1-303); test: ITC; 10 µM protein in the cell, 200 µM GPTIEEVD peptide in the syringe, 25 injections of 8 µl every 3 min, 37°C, HSP70 buffer (25 mM HEPES KOH pH 7.5, 150 mM KCl, 5 mM MgCl2, 5% glycerol, 1 mM DTT); independent binding model; conditions: both partners purified
T1 construct: also called WT; wild-type CHIP; source: E. coli BL21, purified (Glutathion Sepharose 4B, PreScission protease, SEC on Superdex 200)
T1 sequence (looked up): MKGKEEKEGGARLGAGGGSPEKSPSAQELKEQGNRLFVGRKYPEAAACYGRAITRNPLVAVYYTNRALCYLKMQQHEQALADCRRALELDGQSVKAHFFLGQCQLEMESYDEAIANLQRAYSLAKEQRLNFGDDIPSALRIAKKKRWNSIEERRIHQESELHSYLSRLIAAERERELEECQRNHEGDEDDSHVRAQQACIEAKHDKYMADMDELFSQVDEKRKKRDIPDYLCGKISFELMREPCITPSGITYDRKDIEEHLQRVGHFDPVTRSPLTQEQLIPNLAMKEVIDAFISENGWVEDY

Molecule: O=C(NCCN1CCC(n2c(=O)[nH]c3ccccc32)CC1)c1cc2cc(F)ccc2[nH]1 [FIPI]
- release of EGFP-CHIP-K30A from membranes into the cytosol [1]: efficiently released chaperone-free CHIP into the cytosol

Molecule: phosphatidylinositol-3,4,5-trisphosphate
- CHIP binding to phospholipid on lipid array (CHIP [2]): no binding to phosphatidylinositol-3,4,5-trisphosphate detected

Molecule: C=CCNC1=C2C[C@@H](C)C[C@H](OC)[C@H](O)[C@@H](C)/C=C(\C)[C@H](OC(N)=O)[C@@H](OC)/C=C\C=C(/C)C(=O)NC(=CC1=O)C2=O [17-AAG, 17-(Allylamino)−17-demethoxygeldanamycin]
- EGFP-CHIP relocalization to the plasma membrane [3]: mimic the heat shock effect in regard to CHIP relocalization to membranes in murine fibroblasts; also recorded: leads to the appearance of EGFP-CHIP, but not of EGFP, at the plasma membrane

Molecule: C[C@@H](CN1CCC(n2c(=O)[nH]c3cc(Cl)ccc32)CC1)NC(=O)c1ccc2ccccc2c1 [VU0155069]
- release of EGFP-CHIP-K30A from membranes into the cytosol [1]: efficiently released chaperone-free CHIP into the cytosol

Molecule: HSP70-C: last 260 amino acids of human HSPA1A, C-terminal domain of HSP70
- CHIP binding to lipid arrays in the presence of HSP70-C (CHIP [2]; ten-fold molar excess HSP70-C, 0.5 µg/ml CHIP, RT): blocks interaction of CHIP with phospholipids; also recorded: complete loss of binding to phosphatidylinositol monophosphates and only residual interaction with phosphatidic acid
- inhibition of CHIP interaction with liposomes (CHIP [4]; 1 μM HSP70-C (substoichiometric), preincubated with 2 µM CHIP 20 min at 37°C, N = 4): efficiently prevented CHIP from interacting with liposomes
- CHIP association with liposomes, % of control (CHIP [4]; equimolar HSP70-C, preincubated with 2 µM CHIP 20 min at 37°C, N = 4): ca. 30%

Molecule: N#Cc1ccc(COC[C@H]2O[C@@H](n3c(NCc4ccc(Cl)c(Cl)c4)nc4c(N)ncnc43)[C@H](O)[C@@H]2O)cc1 [VER-155008]
- EGFP-CHIP relocalization to the plasma membrane [3]: mimic the heat shock effect in regard to CHIP relocalization to membranes in murine fibroblasts; also recorded: leads to the appearance of EGFP-CHIP, but not of EGFP, at the plasma membrane

Molecule: C-terminal domain of HSP70, 260 amino acids (HSP70-C) (from UniProt P0DMV8 382-641) (domain or fragment)
- association of 2 µM CHIP with liposomes in the pelleting assay after preincubation with HSP70-C (1 µM, substoichiometric, to an equimolar amount), relative to the control without HSP70-C (% of the control) [5]: 30

Molecule: O[As](O)O [arsenite]
- CHIP relocalization to membranes [3]: does not induce CHIP relocalization to membranes in murine fibroblasts; also recorded: not induced by arsenite treatment

Molecule: CCCCCCCCCCCCCCCC(=O)OC[C@H](COP(=O)(O)O[C@H]1[C@H](O)[C@@H](O)[C@H](OP(=O)(O)O)[C@@H](O)[C@H]1O)OC(=O)CCCCCCCCCCCCCCC [PI4P, 1,2-dipalmitoyl-sn-glycero-3-phosphoinositol-4-phosphate]
- CHIP binding to phospholipid on lipid array (CHIP [2]): especially PI4P
- CHIP association with DOPC-liposomes (pelleting), 1% PI4P (CHIP [4]; 1% PI4P, 2 mM liposomes, 2 µM CHIP, 30 min at 37°C, N = 3): weakly
- CHIP association with DOPC-liposomes (pelleting), 5% PI4P (CHIP [4]; 5% PI4P, 2 mM liposomes, 2 µM CHIP, 30 min at 37°C, ***p<0.001, N = 3): strongly enhanced association of liposomes with CHIP; also recorded: strongly enhance CHIP association with DOPC-liposomes

B1: TPR domain: glutamate152 codon exchanged to a stop codon in full-length CHIP (protein, UniProt Q9UNE7 1-151, looked up, fragment)
chain: MKGKEEKEGGARLGAGGGSPEKSPSAQELKEQGNRLFVGRKYPEAAACYGRAITRNPLVAVYYTNRALCYLKMQQHEQALADCRRALELDGQSVKAHFFLGQCQLEMESYDEAIANLQRAYSLAKEQRLNFGDDIPSALRIAKKKRWNSIE
modifications: TPR domain
notes: glutamate152 codon exchanged to a stop codon in full-length CHIP
- binding capacity versus full-length CHIP ([6]; 5% PA-containing DOPC-liposomes): still surpassed the full-length CHIP in binding capacity
- binding efficiency relative to full-length protein ([6]; isolated TPR domain, 20% PA-containing liposomes, 2 µM protein): ca. 160%

B2: C-terminal HSP70 octapeptide GPTIEEVD (peptide)
peptide: GPTIEEVD
notes: last eight residues of HSP70 (HSPA1A); also called HSP70 peptide; HSP70 C-terminal peptide; source: synthetic peptide (custom-synthetized by GenScript)
- Kd [7]: 5 µM
